“Also recorded” adds a separate entry of the source. Where a SMILES comes first, the peptide text is derived from it. Bridges are numbered along the chain shown (N, C = ends). Where no end group is shown, it is not given here. [ ]: non-standard residue; d: D form. The star is where a group is joined. Phe(4-CH2NHiPr) = CC(C)NCc1ccc(C[C@H](N)C(=O)O)cc1; Tyr(3-I) = N[C@@H](Cc1ccc(O)c(I)c1)C(=O)O; 125I = [125I]*
Columns and labels:
mSSTR2 = target: T1, mSSTR2 (Mus musculus, UniProt P30875); test: Inhibition of [125I-Tyr11]SRIF binding to cloned mSSTR2 (Table)
T1 construct: expressed in transfected cells; host or cells: COS and CHO cells
Protocol: (§1) In vitro Bioassay: The effects of the various somatostatin analogs are tested in vitro for their ability to bind to isolated cloned receptors expressed on COS and CHO cells.
(§2) The molecular cloning of the genes encoding multiple somatostatin receptor subtypes permits the individual expression of these receptors in mammalian cells and the characterization of their respective pharmacological profiles.
(§3) Certain of the measurements are in progress.

mSSTR3 = target: T2, mSSTR3 (Mus musculus, UniProt P30935); test: Inhibition of [125I-Tyr11]SRIF binding to cloned mSSTR3 (Table)
T2 construct: expressed in transfected cells; host or cells: COS and CHO cells
Protocol: as §1, §2, §3

mSSTR1 = target: T3, mSSTR1 (Mus musculus, UniProt P30873); test: Inhibition of [125I-Tyr11]SRIF binding to cloned mSSTR1 (Table)
T3 construct: expressed in transfected cells; host or cells: COS and CHO cells
Protocol: as §1, §2, §3

[1] = system: COS-7 cells expressing SSTR1; test: Forskolin-stimulated cAMP formation in COS-7 cells expressing SSTR1; assay type: cell-based; conditions: 1 μM of Peptide No. 2
SSTR1 [2] = target: T4, SSTR1 (Homo sapiens, UniProt P30872); test: Inhibition of [125I-Tyr11]SRIF binding to cloned human SSTR1
T4 construct: expressed in transfected cells; host or cells: COS and CHO cells
Protocol: In a typical assay, an amount of protein from the cell homogenate is placed into a small volume of an appropriate assay buffer at an appropriate pH.
(§4) Alternatively, IC50 values indicative of the concentration of a competitive ligand necessary to displace a saturation concentration of a target ligand being measured from 50% of binding sites can also be calculated in such competitive assays.
as §1, §2

[3] = target: T5, SSTR1 expressed in COS-7 cells (Homo sapiens, UniProt P30872); test: GTPgS and pertussis toxin regulation of radioligand binding to SSTR1 expressed in COS-7 cells
T5 construct: expressed in transfected cells; host or cells: COS-7 cells
Excerpt: (§5) The Bmax value represents the highest number of specific sites which can be occupied at a given time, i.e. the saturation point.

SSTR1 [4] = target: T4, SSTR1; test: Direct saturation binding of iodinated Peptide No. 5 to cloned SSTR1; conditions: iodinated peptide as radioligand
Excerpt: as §4, §5

SSTR3 = target: T6, SSTR3 (Mus musculus, UniProt P30935); test: Direct binding of iodinated Peptide No. 5 to cloned SSTR3
T6 construct: expressed in transfected cells; host or cells: COS and CHO cells
Excerpt: as §5

SSTR2 = target: T7, SSTR2 (Mus musculus, UniProt P30875); test: Direct binding of iodinated Peptide No. 5 to cloned SSTR2
T7 construct: expressed in transfected cells; host or cells: COS and CHO cells
Excerpt: as §5

SSTR4 = target: T8, SSTR4 (Homo sapiens, UniProt P31391); test: Direct binding of iodinated Peptide No. 5 to cloned SSTR4
T8 construct: expressed in transfected cells; host or cells: COS and CHO cells
Excerpt: as §5

SSTR5 = target: T9, SSTR5 (Rattus norvegicus, UniProt P30938); test: Direct binding of iodinated Peptide No. 5 to cloned SSTR5
T9 construct: expressed in transfected cells; host or cells: COS and CHO cells
T9 sequence (P30938 1-363): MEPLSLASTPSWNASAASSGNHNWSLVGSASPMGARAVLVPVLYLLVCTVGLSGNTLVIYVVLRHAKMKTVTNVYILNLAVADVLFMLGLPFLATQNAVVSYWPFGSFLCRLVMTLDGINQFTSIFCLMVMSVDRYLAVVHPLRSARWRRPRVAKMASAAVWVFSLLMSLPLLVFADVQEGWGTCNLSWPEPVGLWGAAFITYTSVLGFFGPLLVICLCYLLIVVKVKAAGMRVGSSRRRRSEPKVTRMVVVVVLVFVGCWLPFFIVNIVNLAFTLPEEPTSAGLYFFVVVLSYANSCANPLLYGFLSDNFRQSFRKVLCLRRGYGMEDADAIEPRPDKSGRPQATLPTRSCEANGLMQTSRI
Excerpt: as §5

SSTR1 [5] = target: T4, SSTR1; test: Inhibition of binding of iodinated Peptide No. 5 to SSTR1; conditions: radioligand iodinated Peptide No. 5
Excerpt: as §4, §5

T1 sequence (P30875 whole entry): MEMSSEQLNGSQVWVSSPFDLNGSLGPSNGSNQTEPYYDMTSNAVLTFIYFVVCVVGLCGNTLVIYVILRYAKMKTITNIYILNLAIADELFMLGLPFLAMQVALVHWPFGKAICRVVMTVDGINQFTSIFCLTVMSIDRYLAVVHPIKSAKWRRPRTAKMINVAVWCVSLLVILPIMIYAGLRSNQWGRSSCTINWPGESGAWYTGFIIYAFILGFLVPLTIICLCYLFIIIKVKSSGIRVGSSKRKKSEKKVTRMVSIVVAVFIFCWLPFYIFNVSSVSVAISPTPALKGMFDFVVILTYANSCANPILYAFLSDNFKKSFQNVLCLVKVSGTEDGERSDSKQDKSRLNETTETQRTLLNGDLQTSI
T2 sequence (P30935 whole entry): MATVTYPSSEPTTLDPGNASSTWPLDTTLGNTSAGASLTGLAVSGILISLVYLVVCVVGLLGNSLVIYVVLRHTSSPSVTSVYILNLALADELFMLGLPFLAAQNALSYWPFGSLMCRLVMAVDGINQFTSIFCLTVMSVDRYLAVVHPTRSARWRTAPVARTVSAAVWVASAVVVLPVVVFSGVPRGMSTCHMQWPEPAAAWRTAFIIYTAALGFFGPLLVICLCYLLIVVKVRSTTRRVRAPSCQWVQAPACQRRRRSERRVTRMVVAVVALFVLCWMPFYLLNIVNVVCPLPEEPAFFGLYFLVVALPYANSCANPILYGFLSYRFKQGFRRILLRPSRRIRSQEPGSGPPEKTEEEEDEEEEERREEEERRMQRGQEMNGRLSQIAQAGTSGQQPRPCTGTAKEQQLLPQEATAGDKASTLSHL
T3 sequence (P30873 whole entry): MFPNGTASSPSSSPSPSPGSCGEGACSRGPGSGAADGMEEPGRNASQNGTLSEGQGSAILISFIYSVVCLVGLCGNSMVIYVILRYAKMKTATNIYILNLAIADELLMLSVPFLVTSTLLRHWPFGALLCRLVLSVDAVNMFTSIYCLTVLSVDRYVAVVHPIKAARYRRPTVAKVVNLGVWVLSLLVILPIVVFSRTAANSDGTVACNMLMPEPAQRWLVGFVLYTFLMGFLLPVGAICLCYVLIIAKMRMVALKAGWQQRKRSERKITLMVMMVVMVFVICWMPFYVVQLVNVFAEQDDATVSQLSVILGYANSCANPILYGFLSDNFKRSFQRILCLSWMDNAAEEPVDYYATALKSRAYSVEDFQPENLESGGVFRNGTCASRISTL
T4 sequence (P30872 whole entry): as the sequence (P30873 whole entry) above, with A25G, C26G, S32A, A385T, S389T counted along it
T5 sequence (P30872 whole entry): as the sequence (P30873 whole entry) above, with A25G, C26G, S32A, A385T, S389T counted along it
T7 sequence (P30875 whole entry): as the sequence (P30875 whole entry) above
T6 sequence (P30935 whole entry): as the sequence (P30935 whole entry) above
T8 sequence (P31391 whole entry): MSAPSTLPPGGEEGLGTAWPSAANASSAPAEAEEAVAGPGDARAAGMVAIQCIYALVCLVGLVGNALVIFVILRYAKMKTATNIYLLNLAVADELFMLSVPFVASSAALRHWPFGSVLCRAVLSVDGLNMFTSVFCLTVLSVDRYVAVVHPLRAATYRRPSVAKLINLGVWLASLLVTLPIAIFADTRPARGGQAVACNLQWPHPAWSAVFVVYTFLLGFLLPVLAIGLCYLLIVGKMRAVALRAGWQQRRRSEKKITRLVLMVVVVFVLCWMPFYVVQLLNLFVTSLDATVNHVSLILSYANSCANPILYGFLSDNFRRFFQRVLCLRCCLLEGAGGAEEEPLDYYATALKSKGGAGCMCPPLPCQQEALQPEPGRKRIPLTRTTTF

| Molecule | IC50 (mSSTR2) [nM] | IC50 (mSSTR3) [nM] | IC50 (mSSTR1) [nM] | also measured |
| --- | --- | --- | --- | --- |
| CC(C)NCc1ccc(C[C@@H]2NC(=O)[C@@H](Cc3c[nH]c4ccccc34)NC(=O)[C@H](Cc3ccccc3)NC(=O)[C@H](Cc3ccccc3)NC(=O)[C@H](CCCCN)NC(=O)[C@@H](NC(=O)[C@@H](N)Cc3ccc(O)cc3)CSSC[C@@H](C(=O)O)NC(=O)[C@H](CO)NC(=O)[C@H]([C@@H](C)O)NC(=O)[C@H](Cc3ccccc3)NC(=O)[C@H]([C@@H](C)O)NC2=O)cc1 [Peptide No. 5] (H-YCKFF[dW][Phe(4-CH2NHiPr)]TFTSC-OH; disulfide 2-12) | > 100 | > 100 | 0.8 | – |
| C[C@H](N)C(=O)NCC(=O)N[C@H]1CSSC[C@@H](C(=O)O)NC(=O)[C@H](CO)NC(=O)[C@H]([C@@H](C)O)NC(=O)[C@H](Cc2ccccc2)NC(=O)[C@H]([C@@H](C)O)NC(=O)[C@H](CCCCN)NC(=O)[C@H](Cc2c[nH]c3ccccc23)NC(=O)[C@H](Cc2ccccc2)NC(=O)[C@H](Cc2ccccc2)NC(=O)[C@H](CC(N)=O)NC(=O)[C@H](CCCCN)NC1=O [SRIF, somatostatin-14] | – | – | – | inhibition of forskolin-stimulated cAMP formation [1]: Neither 1 μM of Peptide No. 2, nor SRIF itself, inhibits forskolin-stimulated cAMP formation |
| CC(C)NCc1ccc(C[C@@H]2NC(=O)[C@@H](Cc3c[nH]c4ccccc34)NC(=O)[C@H](Cc3ccccc3)NC(=O)[C@H](Cc3ccccc3)NC(=O)[C@@H](N)CSSC[C@@H](C(=O)O)NC(=O)[C@H](Cc3ccccc3)NC(=O)[C@H]([C@@H](C)O)NC2=O)cc1 [[IAmp^9]ODT8, [IAmp^5]-ODT8] (H-CFF[dW][Phe(4-CH2NHiPr)]TFC-OH; disulfide 1-8) | > 1000 | 500 | 160 | – |
| CC(C)NCc1ccc(C[C@@H]2NC(=O)[C@@H](Cc3c[nH]c4ccccc34)NC(=O)[C@H](Cc3ccccc3)NC(=O)[C@H](Cc3ccccc3)NC(=O)[C@H](CCCCN)NC(=O)[C@@H](N)CSSC[C@@H](C(=O)O)NC(=O)[C@H](CO)NC(=O)[C@H]([C@@H](C)O)NC(=O)[C@H](Cc3ccccc3)NC(=O)[C@H]([C@@H](C)O)NC2=O)cc1 [Peptide No. 2, des-AA^1,2,5 [D-Trp^8, IAmp^9]-SRIF] (H-CKFF[dW][Phe(4-CH2NHiPr)]TFTSC-OH; disulfide 1-11) | 1100 | 1000 | 1 | IC50 (SSTR1 [2]): 1.8 ± 0.7 nM |
| [^125 I-Tyr^11 ]SRIF (AGCKNFFWKTY(125I)TSC; ends and bridges not checked; UniProt P61278 103-116, looked up, variant F11Y) | – | – | – | effect of GTPgS and pertussis toxin treatment on binding of the radioligand to SSTR1 [3]: did not diminish; also recorded: not significantly effected by GTP analogs nor pertussis toxin treatment |
| CC(C)NCc1ccc(C[C@@H]2NC(=O)[C@@H](Cc3c[nH]c4ccccc34)NC(=O)[C@H](Cc3ccccc3)NC(=O)[C@H](Cc3ccccc3)NC(=O)[C@H](CCCCN)NC(=O)[C@@H](NC(=O)[C@@H](N)Cc3ccc(O)c(I)c3)CSSC[C@@H](C(=O)O)NC(=O)[C@H](CO)NC(=O)[C@H]([C@@H](C)O)NC(=O)[C@H](Cc3ccccc3)NC(=O)[C@H]([C@@H](C)O)NC2=O)cc1 [^125 I-Tyr^2-des-AA^1,5-[D-Trp^8,IAmp^9]SRIF] (H-[Tyr(3-I)]CKFF[dW][Phe(4-CH2NHiPr)]TFTSC-OH; disulfide 2-12) | – | – | – | effect of GTPgS and pertussis toxin treatment on binding of the radioligand to SSTR1 [3]: reduced by GTPgS and pertussis toxin treatment; Bmax, binding to SSTR1 (SSTR1 [4]): 226±56 fmol/mg protein; specific binding of iodinated peptide to SSTR3 (SSTR3): did not bind; specific binding of iodinated peptide to SSTR2 (SSTR2): did not bind; specific binding of iodinated peptide to SSTR4 (SSTR4): did not bind; specific binding of iodinated peptide to SSTR5 (SSTR5): did not bind |
| CC(C)NCc1ccc(C[C@@H]2NC(=O)[C@@H](Cc3c[nH]c4ccccc34)NC(=O)[C@H](Cc3ccccc3)NC(=O)[C@H](Cc3ccccc3)NC(=O)[C@H](CC(N)=O)NC(=O)[C@H](CCCCN)NC(=O)[C@@H](N)CSSC[C@@H](C(=O)O)NC(=O)[C@H](CO)NC(=O)[C@H]([C@@H](C)O)NC(=O)[C@H](Cc3ccccc3)NC(=O)[C@H]([C@@H](C)O)NC2=O)cc1 [Peptide No. 9] (H-CKNFF[dW][Phe(4-CH2NHiPr)]TFTSC-OH; disulfide 1-12) | > 1000 | > 1000 | 54 | – |
| CC(C)NCc1ccc(C[C@@H]2NC(=O)[C@@H](Cc3c[nH]c4ccccc34)NC(=O)[C@H](Cc3ccccc3)NC(=O)[C@H](Cc3ccccc3)NC(=O)[C@H](CCCCN)NC(=O)[C@@H](N)CSSC[C@@H](C(=O)O)NC(=O)[C@@H](CO)NC(=O)[C@H]([C@@H](C)O)NC(=O)[C@H](Cc3ccccc3)NC(=O)[C@H]([C@@H](C)O)NC2=O)cc1 [Peptide No. 4, des-AA^1,2,5-[D-Trp^8, IAmp^9, D-Ser^13]SRIF] (H-CKFF[dW][Phe(4-CH2NHiPr)]TFT[dS]C-OH; disulfide 1-11) | > 1000 | 178 | 1.25 | IC50 (SSTR1 [5]): 5.3 ± 0.8 nM |
